In patent publication US7781591B2, “Substituted 3-cyanopyridines as protein kinase inhibitors” (Wyeth LLC, priority 2006, dated 2010):

Experiments:
[1] = target: T1, human PKCθ full length enzyme (Homo sapiens, UniProt Q04759); experiment: PKCθ IMAP assay (fluorescence polarization); type: biochemical; conditions: human PKCθ full length enzyme, IMAP; average value; read-out: IC50 PKCθ IMAP
T1 construct: human PKCθ full length enzyme (Panvera Cat# P2996); purchased Panvera P2996

[2] = target: T2, purified recombinant full length PKC theta (Panvera, P2996) (Homo sapiens, UniProt Q04759); experiment: Radioactive kinase assay for inhibition of full length (FL) PKCθ; type: biochemical; conditions: average value
T2 construct: purified recombinant full length PKC theta (Panvera, P2996); purchased Panvera P2996
T2 sequence (Q04759 whole entry): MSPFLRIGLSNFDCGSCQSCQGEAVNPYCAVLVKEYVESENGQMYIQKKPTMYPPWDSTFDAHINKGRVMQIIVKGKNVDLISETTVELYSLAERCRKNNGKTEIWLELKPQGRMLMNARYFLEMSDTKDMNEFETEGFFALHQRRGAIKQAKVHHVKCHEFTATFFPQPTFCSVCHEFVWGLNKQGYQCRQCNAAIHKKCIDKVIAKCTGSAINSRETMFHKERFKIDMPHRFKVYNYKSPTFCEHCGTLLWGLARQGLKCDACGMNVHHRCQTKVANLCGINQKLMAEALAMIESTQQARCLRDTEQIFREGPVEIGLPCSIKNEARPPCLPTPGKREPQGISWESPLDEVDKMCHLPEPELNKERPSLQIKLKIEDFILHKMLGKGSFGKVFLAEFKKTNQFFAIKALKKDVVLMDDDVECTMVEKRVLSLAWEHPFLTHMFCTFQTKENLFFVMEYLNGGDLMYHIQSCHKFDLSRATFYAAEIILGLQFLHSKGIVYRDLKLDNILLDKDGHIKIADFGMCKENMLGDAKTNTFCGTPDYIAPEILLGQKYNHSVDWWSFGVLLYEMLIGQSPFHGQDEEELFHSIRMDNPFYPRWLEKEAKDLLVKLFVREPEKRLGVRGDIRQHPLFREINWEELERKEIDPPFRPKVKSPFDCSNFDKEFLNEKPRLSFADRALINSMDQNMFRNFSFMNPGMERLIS
Description: This assay is based on the phosphorylation of a biotinylated substrate by a kinase utilizing radiolabeled ATP (ATP γ P33). The substrate was a biotinylated peptide with a sequence of biotin-[…]-C(O)NH2. […] The assay buffer was composed of 100 mM Hepes, pH7.5, 2 mM MgCl2, 20 mM β-glycerophosphate and 0.008% TritonX 100. A reaction mixture of ATP, ATP γ P33 (PerkinElmer), DTT, and the enzyme was prepared in the assay buffer and added to a 96-well polypropylene plate. The compound (diluted in DMSO in a separate 96-well polypropylene plate) was added to the reaction mixture and incubated at room temperature. Following the incubation, the peptide substrate was added to the reaction mixture to initiate the enzymatic reaction. The reaction was terminated with the addition of a stop solution (100 mM EDTA, 0.2% TritonX100, and 20 mM NaHPO4) and transferred from the assay plate to a washed streptavidin-coated 96-well scintiplate (PerkinElmer). […] Counts were recorded for each well as corrected counts per minute (CCPM). The counts were considered corrected because they were adjusted according to a P33 normalization protocol, which corrects for efficiency and background differences between the instrument detectors (software version 4.40.01).
A Radioactive Kinase Assay for Inhibition of Full Length (FL) PKCθ Inhibitors
This assay differs from what was described above in that the enzyme used was purified recombinant full length PKC theta (Panvera, P2996).

T1 sequence (Q04759 whole entry): as above

SMILES	IC50 [1] [nM]	IC50 [2] [nM]
COCCOc1ccc(-c2cncc(C#N)c2Nc2cccc3[nH]ccc23)cc1OC [Compound 159, 4-(1H-indol-4-ylamino)-5-[3-methoxy-4-(2-methoxyethoxy)phenyl]nicotinonitrile]	16	60
CC(=O)Nc1ccc(-c2cccc(-c3cncc(C#N)c3Nc3ccc4[nH]ccc4c3)c2)cc1 [Compound 120, N-{3′-[5-cyano-4-(1H-indol-5-ylamino)pyridin-3-yl]biphenyl-4-yl}acetamide]	230	120
N#Cc1cncc(-c2cccc(-c3ncccn3)c2)c1Nc1ccc2[nH]ccc2c1 [Compound 138, 4-(1H-indol-5-ylamino)-5-(3-pyrimidin-2-ylphenyl)nicotinonitrile]	190	100
N#Cc1cncc(-c2cccc(-c3ccc(Cl)cc3)c2)c1Nc1ccc2[nH]ccc2c1 [Compound 131, 5-(4′-chlorobiphenyl-3-yl)-4-(1H-indol-5-ylamino)nicotinonitrile]	120	50
N#Cc1cncc(-c2cccc(-c3cccc(Cl)c3)c2)c1Nc1ccc2[nH]ccc2c1 [Compound 130, 5-(3′-chlorobiphenyl-3-yl)-4-(1H-indol-5-ylamino)nicotinonitrile]	160	80
COCCOc1cc(-c2cncc(C#N)c2Nc2ccc3[nH]ccc3c2)ccc1OC [Compound 154, 4-(1H-indol-5-ylamino)-5-[4-methoxy-3-(2-methoxyethoxy)phenyl]nicotinonitrile]	320	360
N#Cc1cncc(-c2cccc(-c3cccc(C(=O)O)c3)c2)c1Nc1ccc2[nH]ccc2c1 [Compound 133, 3′-[5-cyano-4-(1H-indol-5-ylamino)pyridin-3-yl]biphenyl-3-carboxylic acid]		370
COc1ccc(-c2cncc(C#N)c2Nc2cc(C)c3[nH]ccc3c2)cc1OC [Compound 217, 5-(3,4-dimethoxyphenyl)-4-[(7-methyl-1H-indol-5-yl)amino]nicotinonitrile]		360
N#Cc1cncc(-c2cccc(-c3ccc(C(=O)NCc4ccccc4)cc3)c2)c1Nc1ccc2[nH]ccc2c1 [Compound 204, N-benzyl-3′-[5-cyano-4-(1H-indol-5-ylamino)pyridin-3-yl]biphenyl-4-carboxamide]		190
N#Cc1cncc(-c2cccc(OCCCl)c2)c1Nc1ccc2[nH]ccc2c1 [Compound 167, 5-[3-(2-chloroethoxy)phenyl]-4-(1H-indol-5-ylamino)nicotinonitrile]		110
N#Cc1cncc(-c2cccc(OCCCl)c2)c1Nc1cccc2[nH]ccc12 [Compound 165, 5-[3-(2-chloroethoxy)phenyl]-4-(1H-indol-4-ylamino)nicotinonitrile]		20
N#Cc1cncc(-c2cccc(-c3ccccc3Cl)c2)c1Nc1ccc2[nH]ccc2c1 [Compound 129, 5-(2′-chlorobiphenyl-3-yl)-4-(1H-indol-5-ylamino)nicotinonitrile]	240	60
N#Cc1cncc(-c2cccc(OCCN3CCOCC3)c2)c1Nc1ccc2cc[nH]c2c1 [Compound 173, 4-(1H-indol-6-ylamino)-5-[3-(2-morpholin-4-ylethoxy)phenyl]nicotinonitrile]		2630
COCCOc1ccc(-c2cncc(C#N)c2Nc2ccc3[nH]c(C)cc3c2)cc1OC [Compound 163, 5-[3-methoxy-4-(2-methoxyethoxy)phenyl]-4-[(2-methyl-1H-indol-5-yl)amino]nicotinonitrile]		320
COCCOc1cc(-c2cncc(C#N)c2Nc2ccc3[nH]c(C)cc3c2)ccc1OC [Compound 157, 5-[4-methoxy-3-(2-methoxyethoxy)phenyl]-4-[(2-methyl-1H-indol-5-yl)amino]nicotinonitrile]		550
N#Cc1cncc(-c2ccccc2-c2ccc(Cl)cc2)c1Nc1ccc2[nH]ccc2c1 [Compound 145, 5-(4′-chlorobiphenyl-2-yl)-4-(1H-indol-5-ylamino)nicotinonitrile]		1920
